Results taken from BindingDB's records for doi:10.1021/acschembio.6b00666 (Virginia Tech, 2016).

Experiments:
[1] = target: T1, L-ornithine N(5)-monooxygenase (Aspergillus fumigatus (strain ATCC MYA-4609 / CBS 101355 / FGSC A1100 / Af293), UniProt E9QYP0); experiment: SidA Activity Assay; details: pH 7.5
Method: Briefly, this assay consists of the formation of nitrite from hydroxyl amine that is quantified by formation of a chromophore with α-naphthylamine, which has an absorbance maximum at 529 nm. Formation of HO-Orn was quantified using a standard curve with hydroxylamine (25−350 μM). The standard assay contained 25 μL of 100 mM sodium phosphate (pH 7.5), 1 μM SidA, 500 μM L-Orn, and 250 μM NADPH for activity and IC50 determinations. Compound concentration was varied from 0.01 to 1 mM, and the reaction mix contained a final DMSO concentration of 10%. The reaction was started with the addition of NADPH, allowed to proceed for 20 min atRT, and quenched with 13 μL of 2 N HClO4. To identify compounds that caused inhibition by inducing protein aggregation, the IC50 was determined in 100 mM phosphate buffer, pH 7.5, containing 0.1% v/v Triton X-100.23 As some compounds had either an increase or decrease in the color development or had absorbance at a visi

[2] = target: T1, L-ornithine N(5)-monooxygenase; experiment: ADP-TAMRA Binding Assay; details: pH 7
Method: The 96 well plates were used, and the reaction volume was 25 μL using 50 mM sodium phosphate buffer (pH 7.0). For the screening, 30 nM of ADP-TAMRA with 2 μM SidA (based on the Bradford assay) and 20 μM of library compound were used, withthe final DMSO concentration at 2%. Fluorescence polarization measurements were performed with excitation at 544 nm and emission at 584 nm, using a wavelength cutoff of 570 nm. Anisotropy values were normalized to the values obtained in the negative control sample: SidA, ADP-TAMRA, and DMSO. The positive control consisted of ADP-TAMRA and DMSO.

T1 sequence (E9QYP0 whole entry): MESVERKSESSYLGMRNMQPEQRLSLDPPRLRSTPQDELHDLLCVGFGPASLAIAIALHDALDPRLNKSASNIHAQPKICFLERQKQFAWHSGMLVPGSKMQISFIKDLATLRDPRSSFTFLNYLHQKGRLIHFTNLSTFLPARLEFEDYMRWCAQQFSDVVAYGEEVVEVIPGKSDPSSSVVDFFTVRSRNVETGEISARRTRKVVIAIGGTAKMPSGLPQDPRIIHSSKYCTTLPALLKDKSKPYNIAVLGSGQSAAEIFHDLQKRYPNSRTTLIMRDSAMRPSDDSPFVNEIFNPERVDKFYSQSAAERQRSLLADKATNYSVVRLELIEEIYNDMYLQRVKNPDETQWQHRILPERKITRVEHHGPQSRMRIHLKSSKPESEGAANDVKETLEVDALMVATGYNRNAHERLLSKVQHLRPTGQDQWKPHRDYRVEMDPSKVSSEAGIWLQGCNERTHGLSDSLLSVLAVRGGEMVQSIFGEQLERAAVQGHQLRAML

SMILES: CC1=C(O)C(=O)C=C2C1=CC=C1[C@@]2(C)CC[C@@]2(C)[C@@H]3C[C@](C)(C(=O)O)CC[C@]3(C)CC[C@]12C [Celastrol]
- IC50 [1]: 11 µM
- Kd [2]: 1.4 µM
